Experimental data: paper PMC9381536, “Non-apoptotic cell death induction via sapogenin based supramolecular particles” (Scientific Reports, 2022)

Tested on: CHOP
Test: CHOP expression (immunoblot, q-RTPCR)
Assay type: cell-based
Description: Figure 3 mRNA microarray analysis was used to identify differentially expressed genes via AG-08 treatment. (A) Heatmap representing the expressions of 193 genes with significant different expression in AG-08 treated cells compared with control. Heatmap was generated by GraphPad Prism version 8 (https://www.graphpad.com/scientific-software/prism/). (B) Protein–protein network analysis was formed via STRING. The thickness of the connecting lines indicates the strength of data support for physical and/or functional associations. (C) Pathway enrichment was determined using GO, KEGG, and Reactome pathway analysis. […] Size of circle represents the significance of enrichment. (D) The protein levels of CHOP were determined via IB. 0.5 µg/ml tunicamycin (Tun) was used as positive control. The experiments were repeated three times independently; with one representative result shown. (E) mRNA level of the CHOP was investigated using quantitative PCR (q-RTPCR). Error bars represent standard error (s.e.). p-values were calculated with respect to vehicle-treated cells by one-way Anova test. (**p < 0.005, ****p < 0.0001). (F) The expression and localization of Calnexin protein were evaluated using immunofluorescence via anti-Calnexin antibody (scale bar 25 µm).
The total RNA was isolated using Total RNA Isolation Kit (Bio-Rad, US) following the manufacturer’s instructions. cDNAs were synthesized using The iScript cDNA synthesis kit (Bio-Rad, US) according to the manufacturer’s instructions. To gene expression analysis, specific primers were designed against CHOP (forward: […], reverse: […] ). Quantitative RT-PCR (qRT-PCR) was performed using The SYBR Green I Mastermix (Bio-Rad, US) and LightCycler480 thermocycler (Roche). […] For relative quantification, reaction efficiency incorporated ΔΔCq formula was used. […]
Cell lysates were prepared by RIPA buffer (1XPBS, 1% nonidet P-40, 0.5% sodium deoxycholate, and 0.1% SDS, pH 8.0). Protein concentrations were determined by bicinchoninic acid (BCA) protein assay (Thermo Fisher Scientific, US). […]

Cc1ccc(S(=O)(=O)OC2CCC3(C)C4=CCC5(C)C(C6(C)CCC(C(C)(C)O)O6)C(O)CC5(C)C4C=CC3C2(C)C)cc1 (stereo not drawn) [AG-08]
CHOP protein level (8 µM): enhanced
CHOP protein level (16 µM): decreased
CHOP (DDIT3) expression (AG-08 treated cells): upregulated in a dose-dependent manner
